{"source": "paper PMC8967716", "about": "“Inhibition of calcium-triggered secretion by hydrocarbon-stapled peptides” (Nature, 2022)", "target": "T1, neuronal SNAREs and Syt1(QM) (Rattus norvegicus, UniProt P21707, E295A/R281A/R398A/R399A/Y338W)", "T1 construct": "made in house", "T1 sequence (P21707 whole entry R281A/E295A/Y338W/R398A/R399A)": "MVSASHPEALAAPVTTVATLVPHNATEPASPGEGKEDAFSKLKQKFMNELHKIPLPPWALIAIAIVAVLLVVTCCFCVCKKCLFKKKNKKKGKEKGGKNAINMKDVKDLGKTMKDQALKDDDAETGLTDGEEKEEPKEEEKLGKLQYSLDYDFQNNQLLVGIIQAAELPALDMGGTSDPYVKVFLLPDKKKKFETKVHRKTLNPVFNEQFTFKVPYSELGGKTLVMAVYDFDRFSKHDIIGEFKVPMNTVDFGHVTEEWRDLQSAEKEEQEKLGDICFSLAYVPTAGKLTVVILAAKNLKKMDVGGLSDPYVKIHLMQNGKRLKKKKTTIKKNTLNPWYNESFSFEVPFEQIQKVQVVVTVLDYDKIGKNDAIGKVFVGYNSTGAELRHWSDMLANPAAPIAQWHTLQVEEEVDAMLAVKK", "experiment": "Single-vesicle content mixing assay, neuronal SNAREs and Syt1(QM)", "assay_type": "biochemical", "key": {"[1]": {"conditions": "10 μM SP9, each value one repeat experiment"}, "[2]": {"conditions": "500 μM Ca2+, 10 μM SP9, each value one repeat experiment"}}, "note": "Several values for one entry are separate records, joined by “and”; a condition that tells them apart may be missing. Equal values may be shown once. Positions of bridges follow the written chain, without caps; N, C: chain ends. Non-standard residues stand in square brackets, D forms with d. Residues, ends and D or L forms follow the SMILES beside them. S5 = C=CCCC[C@](C)(N)C(=O)O"}
{"smiles": "CC[C@H](C)[C@H](NC(=O)[C@]1(C)CCCC=CCCC[C@](C)(NC(=O)[C@H](CCC(=O)O)NC(=O)[C@H](CCC(=O)O)NC(C)=O)C(=O)N[C@@H](CCCCN)C(=O)N[C@@H](CC(=O)O)C(=O)N[C@@H](C)C(=O)N1)C(=O)N[C@@H](CCCNC(=N)N)C(=O)N[C@@]1(C)CCCC=CCCC[C@@](C)(C(=O)N[C@@H](CC(=O)O)C(=O)N[C@@H](CCC(=O)O)C(=O)N[C@@H](CCC(N)=O)C(=O)N[C@@H](CS)C(N)=O)NC(=O)[C@H](CCSC)NC(=O)[C@H](C(C)C)NC(=O)[C@H](CC(C)C)NC1=O", "note": "[SP9] (Ac-EE[S5]KDA[S5]IR[S5]LVM[S5]DEQC-NH2; staple 3-7, 10-14)", "values": [{"measurement": "Ca2+ independent fusion per sec (average probability)", "setting": "[1]", "value": "0.0007051 and 0.0008431 and 0.0008917"}, {"measurement": "Vesicle association", "setting": "[1]", "value": "67 and 40 and 70"}, {"measurement": "Ca2+ triggered fusion accumulative probability (within 1 min)", "setting": "[2]", "value": "0.0513 and 0.04654 and 0.06303"}, {"measurement": "Ca2+ triggered fusion amplitude (first 1-sec time bin)", "setting": "[2]", "value": "0.004413 and 0.005288 and 0.004669"}, {"measurement": "effect on Ca2+-independent or Ca2+-triggered fusion with Syt1(QM)", "setting": "SP9 vs no peptide", "value": "little effect"}]}
